Columns and labels:
[1] = system: Human Umbilical Vein Endothelial Cells (HUVEC); assay: Cryostage freeze-thaw of endothelial cell-coated microchannels (cell attachment, membrane integrity); type: cell-based; details: with Snomax
Protocol: Prior to coating with endothelial cells, microchannels were sonicated briefly (3 min in isopropanol; Branson 200, Branson Ultrasonics), and then rinsed with PBS. Channels were then coated with 1 mg/mL fibronectin (dissolved in sterile PBS, total of 10 μl) and incubated for 60 min at 37° C. After a priming step, HUVEC cells were trypsinized, counted, and re-suspended in EBM-2 complete media (˜10.0×10^6 cells per mL). Cells were subsequently introduced to the cell seeding port and incubated at 37° C. 5% CO2 for 30 min (FIG. 1A). Final constriction diameters of cellularized microchannels varied from ˜10 to 20 μm across the lengths of individual channels due to the presence of cellular nuclei along channel walls. Coated microchannels were then fed under continuous gravity flow using a pipet tip containing media and inserted into the delivery port to generate flow in the reverse direction from loading (FIG. 1A). Pipet tips (200 μl) filled with media provided an initial hydrostatic head of 2.5 cm H2O. Cells incubated at 37° C. 5% CO2 up to 3 days with daily replacement of tips with filled media before proceeding to experimentation. […] Control, unfrozen microchannels were stained with Calcein green (1:1000), Hoescht (H3570; 1:1000 v:v), and propidium iodide (4 μg/mL) for 20 min and imaged, while microchannels imaged prior to experimentation/freezing were only stained with Calcein green (1:1000). These experimental microchannels were subsequently stained after experimentation/freezing with Hoescht (H3570; 1:1000 v:v), and propidium iodide (4 μg/mL).
Endothelial cell-coated microchannels were prepared, and placed on the silver block of a FDCS196 cryostage (Linkam Scientific Instruments Ltd, London, UK), the temperature of which was controlled by the TMS 94 temperature controller with the accuracy of ±0.1° C. Microchannels bonded to glass slides were cut into individual devices so they would fit on the silver block of the Linkam cryostage. A PixeLINK PL-A662 camera (PixeLINK, Ottawa, Canada) was used to visualize ice formation and propagation. In all cases, ice nucleation temperature was recorded and ice propagation throughout the device was confirmed by direct visual inspection (FIG. 7). Prior to freezing, endothelial cell-coated microchannels in the 3-O-methyl-D-glucopyranose (3-OMG) experimental group were incubated with EBM-2 complete media supplemented with either 50 or 100 mM 3-OMG at 37° C. to promote intracellular transport of the glucose analog. Supplementation of 3-OMG in the basal media and incubation at 37° is an effective method for intracellular delivery of 3-OMG. […] Snomax (Snomax International, Englewood, CO, USA) was used as the model ice nucleator in this study (1 mg/mL). Microchannels were perfused with PBS containing ice nucleators and/or cryoprotectant agents for 10 min prior to beginning the cooling profile. During the freezing experiment, the temperature was first cooled at 10° C./min to 4° C. After thermal stabilization, a cooling rate of 1° C./min was applied until reaching the holding temperature. […] For microchannels which contained Snomax, ice was observed <−6° C. in all cases, and channels were cooled to −6, −10, or −20° C. At the lowest holding temperature, microchannels were held for 3-5 min before a rapid rewarming at +30° C./min (FIG. 1C). After rewarming, microchannels were stained with Hoescht (nuclear) and propidium iodide (membrane integrity) dissolved in EBM-2 complete media for 20 min and imaged, in which the cell membrane integrity was used as a discriminator of live and dead cells.
Cell attachment values were quantified by counting the total number of Hoechst positive cells (i.e. total number of cell nuclei) and dividing by the total number of channels (each device has maximum of 16 channels). Membrane integrity was quantified by counting the number of propidium iodide positive cells divided by the total number of Hoechst positive cells. […]

[2] = system: Human Umbilical Vein Endothelial Cells (HUVEC); assay: Endothelial cell attachment with CPAs without freezing (FIG. 9); type: cell-based; details: 100 mM 3-OMG, p=0.6995
Protocol: Prior to coating with endothelial cells, microchannels were sonicated briefly (3 min in isopropanol; Branson 200, Branson Ultrasonics), and then rinsed with PBS. Channels were then coated with 1 mg/mL fibronectin (dissolved in sterile PBS, total of 10 μl) and incubated for 60 min at 37° C. After a priming step, HUVEC cells were trypsinized, counted, and re-suspended in EBM-2 complete media (˜10.0×10^6 cells per mL). Cells were subsequently introduced to the cell seeding port and incubated at 37° C. 5% CO2 for 30 min (FIG. 1A). Final constriction diameters of cellularized microchannels varied from ˜10 to 20 μm across the lengths of individual channels due to the presence of cellular nuclei along channel walls. […]
Cell attachment values were quantified by counting the total number of Hoechst positive cells (i.e. total number of cell nuclei) and dividing by the total number of channels (each device has maximum of 16 channels). Membrane integrity was quantified by counting the number of propidium iodide positive cells divided by the total number of Hoechst positive cells. Cell attachment and membrane integrity are expressed as box-and-whiskers plots showing median, interquartile range, maxima, and minima (n=4-8). […]

[3] = system: livers (parenchyma and endothelial cells)
Source text: In the experiments, endothelial damage occurred as a result of the loading process of high viscosity solutions. This liver was not frozen and was only subjected to the loading protocol with 10% glycerol as the main cryoprotectant.
A stepwise loading protocol was preformed to address this issue. The liver was sampled for histology and endothelial analysis immediately after CPA loading. Thus, all livers presented were not frozen/stored and had the independent damage of the loading protocol only. Furthermore, the loading protocol was redesigned with special consideration for the impact of dramatic changes in osmolality between distinct phases of CPA loading. Thus, a step-wise loading protocol was finalized.
The stepwise loading protocol was tested in the following way: (1) “Loading 1” refers to the 3-OMG loading phase which is essential for intracellular delivery of this CPA. 3-OMG is loaded using the subnormothermic cocktail containing a William's E media base supplemented with heparin, hydrocortisone, insulin, etc.
First, livers were continuously perfused with either 50 or 100 mM 3-OMG at subnormothermic temperatures for 60 minutes (“Loading 1”) and were immediately sampled for histology.
After the experiment was stopped, livers were sampled for histology.

[4] = pH change of storage solution on freezing (phenol red); type: physicochemical; details: phenol red in storage solution
Source text: The pH can change dramatically as a function of freezing and holding temperature. Depending on the components of the storage solution, the biologic sample can be exposed to an acidic or a basic environment. These changes can be determined by adding phenol red to the storage solution. […] This pH change is relevant and can affect the preservation media. To counter these fluctuations in pH, the goal is to introduce “counter ions” which can balance the pH change.

CO[C@H]1[C@H](O)[C@@H](CO)OC(O)[C@@H]1O (stereo partly drawn) [3-OMG, 3-O-methyl-D-glucopyranose]
cell attachment ([1]; 50 mM 3-OMG, Thold −6° C.): 33.2±9.1 cells/lane
percent PI positive cells (membrane integrity) ([1]; 50 mM 3-OMG, Thold −6° C.): 7.4±3.7%
cell attachment ([1]; 50 mM 3-OMG, Thold −10° C.): 15.1±8.2 cells/lane
percent PI positive cells (membrane integrity) ([1]; 50 mM 3-OMG, Thold −10° C.): 38.1±7.5%
cell attachment ([1]; 100 mM 3-OMG, Thold −6° C.): 31.4±6.6 cells/lane
percent PI positive cells (membrane integrity) ([1]; 100 mM 3-OMG, Thold −6° C.): 7.3±2.8%
cell attachment ([1]; 100 mM 3-OMG, Thold −10° C.): 33.6±8.8 cells/lane
percent PI positive cells (membrane integrity) ([1]; 100 mM 3-OMG, Thold −10° C.): 20.5±12.4%
cell attachment versus unfrozen controls without CPAs [2]: no statistical significant difference

OCC(O)CO [glycerol]
cell death after loading that was not stepwise (FIG. 15A) [3]: majority of cell death evident in endothelial cells

O=C([O-])O.[Na+] [sodium bicarbonate]
pH change of solution as the result of freezing [4]: became basic

Reference: patent publication US12058996B2, “High subzero cryopreservation” (The General Hospital Corporation, priority 2017, dated 2024)
